Source: ChEMBL document CHEMBL6087476, “Positive Charge-Concentrated Dimeric Lipopeptides with Enhanced Protease Resistance: A Potential Solution for Systemic Bacterial Infections” (J Med Chem, 2025)

What was measured:
[1] = test system: Staphylococcus aureus; experiment: Antimicrobial activity against Staphylococcus aureus 25923 assessed as increase in absorbance incubated for 20 to 22 hrs; format: functional; conditions: time 20-22 hrs
[2] = test system: Escherichia coli; experiment: Antimicrobial activity against Escherichia coli K88 assessed as increase in absorbance incubated for 20 to 22 hrs; format: functional; conditions: time 20-22 hrs
[3] = test system: Enterococcus faecalis; experiment: Antimicrobial activity against Enterococcus faecalis 29212 assessed as increase in absorbance incubated for 20 to 22 hrs; format: functional; conditions: time 20-22 hrs
[4] = test system: Staphylococcus epidermidis; experiment: Antimicrobial activity against Staphylococcus epidermidis 12228 assessed as increase in absorbance incubated for 20 to 22 hrs; format: functional; conditions: time 20-22 hrs
[5] = test system: Pseudomonas aeruginosa; experiment: Antimicrobial activity against Pseudomonas aeruginosa 27853 assessed as increase in absorbance incubated for 20 to 22 hrs; format: functional; conditions: time 20-22 hrs
[6] = test system: Salmonella typhimurium; experiment: Antimicrobial activity against Salmonella typhimurium 14028 assessed as increase in absorbance incubated for 20 to 22 hrs; format: functional, Salmonella enterica subsp. enterica serovar Typhimurium; conditions: Salmonella enterica, time 20-22 hrs
[7] = Cytotoxicity against porcine IPEC-J2 cells assessed as cell death measured after 18 to 24 hrs by MTT assay; format: functional; conditions: Sus scrofa, time 18-24 hrs
[8] = test system: Staphylococcus aureus; experiment: Antimicrobial activity against Staphylococcus aureus 29213 assessed as increase in absorbance incubated for 20 to 22 hrs; format: functional; conditions: time 20-22 hrs
[9] = Hemolytic activity in healthy human RBC assessed as hemolysis incubated for 1 hr by microplate reader; format: toxicity, cell-based; conditions: erythrocyte
[10] = test system: Staphylococcus aureus; experiment: Antimicrobial activity against methicillin-resistant Staphylococcus aureus 43300 assessed as increase in absorbance incubated for 20 to 22 hrs; format: functional; conditions: time 20-22 hrs
[11] = test system: Escherichia coli; experiment: Antimicrobial activity against Escherichia coli ATCC 25922 assessed as increase in absorbance incubated for 20 to 22 hrs; format: functional; conditions: time 20-22 hrs
[12] = test system: RAW264.7; experiment: Cytotoxicity against mouse RAW264.7 cells assessed as cell death measured after 18 to 24 hrs by MTT assay; format: functional; conditions: time 18-24 hrs
[13] = test system: HEK-293T; experiment: Cytotoxicity against human HEK293T cells assessed as cell death measured after 18 to 24 hrs by MTT assay; format: functional; conditions: time 18-24 hrs
[14] = test system: Escherichia coli; experiment: Antimicrobial activity against Escherichia coli K99 assessed as increase in absorbance incubated for 20 to 22 hrs; format: functional; conditions: time 20-22 hrs
[15] = test system: Salmonella typhimurium; experiment: Antimicrobial activity against Salmonella typhimurium 7731 assessed as increase in absorbance incubated for 20 to 22 hrs; format: functional, Salmonella enterica subsp. enterica serovar Typhimurium; conditions: Salmonella enterica, time 20-22 hrs

CCCCCCCC(=O)NCCCC[C@H](NC(=O)[C@@H](N)CS)C(=O)NCC(=O)NCC(=O)NCC(=O)N[C@H](CCCNC(=N)N)C(=O)N[C@@H](CCCNC(=N)N)C(=O)N[C@@H](CCCNC(=N)N)C(=O)N1CCC[C@H]1C(=O)O
64 µM: MIC [2] | MIC [5] | MIC [11]
128 µM: MIC [1] | MIC [3] | MIC [4] | MIC [6] | MIC [8] | MIC [10] | MIC [14] | MIC [15]
256 µM: IC10 [7] | HC10 [9] | IC10 [12] | IC10 [13]

CCCCCCCC(=O)NCCCC[C@H](NC(=O)[C@@H](N)CSSC[C@H](N)C(=O)N[C@@H](CCCCNC(=O)CCCCCCC)C(=O)NCC(=O)NCC(=O)NCC(=O)N[C@H](CCCNC(=N)N)C(=O)N[C@@H](CCCNC(=N)N)C(=O)N[C@@H](CCCNC(=N)N)C(=O)N1CCC[C@H]1C(=O)O)C(=O)NCC(=O)NCC(=O)NCC(=O)N[C@H](CCCNC(=N)N)C(=O)N[C@@H](CCCNC(=N)N)C(=O)N[C@@H](CCCNC(=N)N)C(=O)N1CCC[C@H]1C(=O)O
16 µM: MIC [5] | MIC [6] | MIC [15]
8 µM: MIC [2] | MIC [11] | MIC [14]
128 µM: MIC [1] | MIC [3] | MIC [4] | MIC [8] | MIC [10]
256 µM: IC10 [7] | HC10 [9] | IC10 [12] | IC10 [13]

CCCCCCCCCCCC(=O)NCCCC[C@H](NC(=O)[C@@H](N)CSSC[C@H](N)C(=O)N[C@@H](CCCCNC(=O)CCCCCCCCCCC)C(=O)NCC(=O)NCC(=O)NCC(=O)N[C@H](CCCNC(=N)N)C(=O)N[C@@H](CCCNC(=N)N)C(=O)N[C@@H](CCCNC(=N)N)C(=O)N1CCC[C@H]1C(=O)O)C(=O)NCC(=O)NCC(=O)NCC(=O)N[C@H](CCCNC(=N)N)C(=O)N[C@@H](CCCNC(=N)N)C(=O)N[C@@H](CCCNC(=N)N)C(=O)N1CCC[C@H]1C(=O)O
128 µM: IC10 [7] | HC10 [9] | IC10 [12] | IC10 [13]
16 µM: MIC [2] | MIC [3] | MIC [4] | MIC [6] | MIC [8]
18 µM: MIC [10]
8 µM: MIC [5]
32 µM: MIC [1] | MIC [14] | MIC [15]
4 µM: MIC [11]

CCCCCCCC(=O)NCCCC[C@H](N)C(=O)NCC(=O)NCC(=O)NCC(=O)N[C@H](CCCNC(=N)N)C(=O)N[C@@H](CCCNC(=N)N)C(=O)N[C@@H](CCCNC(=N)N)C(=O)N1CCC[C@H]1C(=O)N[C@@H](CSSC[C@H](NC(=O)[C@@H]1CCCN1C(=O)[C@H](CCCNC(=N)N)NC(=O)[C@H](CCCNC(=N)N)NC(=O)[C@@H](CCCNC(=N)N)NC(=O)CNC(=O)CNC(=O)CNC(=O)[C@@H](N)CCCCNC(=O)CCCCCCC)C(=O)O)C(=O)O
256 µM: IC10 [7] | HC10 [9] | IC10 [12] | IC10 [13]
32 µM: MIC [1] | MIC [8] | MIC [10]
64 µM: MIC [3] | MIC [4]
2 µM: MIC [11]
4 µM: MIC [2] | MIC [5] | MIC [6] | MIC [14] | MIC [15]

CCCCCCCCCCCC(=O)NCCCC[C@H](NC(=O)[C@@H](N)CS)C(=O)NCC(=O)NCC(=O)NCC(=O)N[C@H](CCCNC(=N)N)C(=O)N[C@@H](CCCNC(=N)N)C(=O)N[C@@H](CCCNC(=N)N)C(=O)N1CCC[C@H]1C(=O)O
64 µM: MIC [3] | MIC [4] | MIC [8] | MIC [10] | MIC [14] | MIC [15]
32 µM: MIC [2] | MIC [5] | MIC [11]
128 µM: MIC [1] | MIC [6] | HC10 [9] | IC10 [12] | IC10 [13]
256 µM: IC10 [7]

CCCCCCCCCCCC(=O)NCCCC[C@H](N)C(=O)NCC(=O)NCC(=O)NCC(=O)N[C@H](CCCNC(=N)N)C(=O)N[C@@H](CCCNC(=N)N)C(=O)N[C@@H](CCCNC(=N)N)C(=O)N1CCC[C@H]1C(=O)N[C@@H](CS)C(=O)O
32 µM: MIC [2] | MIC [3] | IC10 [7] | MIC [14] | MIC [15]
64 µM: MIC [1] | MIC [4] | MIC [6] | MIC [8] | HC10 [9] | MIC [10] | IC10 [12]
16 µM: MIC [5] | MIC [11]
128 µM: IC10 [13]

CCCCCCCCCC(=O)NCCCC[C@H](N)C(=O)NCC(=O)NCC(=O)NCC(=O)N[C@H](CCCNC(=N)N)C(=O)N[C@@H](CCCNC(=N)N)C(=O)N[C@@H](CCCNC(=N)N)C(=O)N1CCC[C@H]1C(=O)N[C@@H](CS)C(=O)O
256 µM: IC10 [7] | HC10 [9] | IC10 [12] | IC10 [13]
16 µM: MIC [2] | MIC [6] | MIC [11] | MIC [14]
8 µM: MIC [5]
32 µM: MIC [1] | MIC [3] | MIC [4] | MIC [8] | MIC [10] | MIC [15]

CCCCCCCC(=O)NCCCC[C@H](N)C(=O)NCC(=O)NCC(=O)NCC(=O)N[C@H](CCCNC(=N)N)C(=O)N[C@@H](CCCNC(=N)N)C(=O)N[C@@H](CCCNC(=N)N)C(=O)N1CCC[C@H]1C(=O)N[C@@H](CS)C(=O)O
256 µM: IC10 [7] | HC10 [9] | IC10 [12] | IC10 [13]
32 µM: MIC [2] | MIC [11] | MIC [14] | MIC [15]
8 µM: MIC [5]
128 µM: MIC [1] | MIC [3] | MIC [4] | MIC [8] | MIC [10]
64 µM: MIC [6]

CCCCCCCCCCCC(=O)NCCCC[C@H](N)C(=O)NCC(=O)NCC(=O)NCC(=O)N[C@H](CCCNC(=N)N)C(=O)N[C@@H](CCCNC(=N)N)C(=O)N[C@@H](CCCNC(=N)N)C(=O)N1CCC[C@H]1C(=O)N[C@@H](CSSC[C@H](NC(=O)[C@@H]1CCCN1C(=O)[C@H](CCCNC(=N)N)NC(=O)[C@H](CCCNC(=N)N)NC(=O)[C@@H](CCCNC(=N)N)NC(=O)CNC(=O)CNC(=O)CNC(=O)[C@@H](N)CCCCNC(=O)CCCCCCCCCCC)C(=O)O)C(=O)O
16 µM: MIC [2]
8 µM: MIC [5] | MIC [11]
32 µM: MIC [1] | MIC [3] | MIC [4] | MIC [6] | IC10 [7] | MIC [8] | MIC [10] | MIC [14] | MIC [15]
64 µM: HC10 [9] | IC10 [12]
128 µM: IC10 [13]

CCCCCCCCCC(=O)NCCCC[C@H](NC(=O)[C@@H](N)CS)C(=O)NCC(=O)NCC(=O)NCC(=O)N[C@H](CCCNC(=N)N)C(=O)N[C@@H](CCCNC(=N)N)C(=O)N[C@@H](CCCNC(=N)N)C(=O)N1CCC[C@H]1C(=O)O
64 µM: MIC [1] | MIC [3] | MIC [8] | MIC [10] | MIC [15]
256 µM: IC10 [7] | HC10 [9] | IC10 [12] | IC10 [13]
16 µM: MIC [5]
32 µM: MIC [2] | MIC [6] | MIC [11] | MIC [14]
128 µM: MIC [4]
